Assay results as given in PubChem BioAssay (NCI).
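Exposure lasted 48 hours, with cells grown in 96-well plates and compounds tested at five concentrations. The concentration for full growth arrest is given as TGI.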

What was measured:
Test in all cases: DTP human tumour cell line panel, 48 h
[1] = tested on: HCT-15 colon
[2] = tested on: SK-OV-3 ovarian
[3] = tested on: HT29 colon
[4] = tested on: EKVX NSCLC
[5] = tested on: MDA-N
[6] = tested on: SNB-75 CNS
[7] = tested on: PC-3 prostate
[8] = tested on: MCF7 breast
[9] = tested on: LOX IMVI melanoma
[10] = tested on: MDA-MB-435
[11] = tested on: HOP-62 NSCLC

| SMILES | TGI [1] | TGI [2] | TGI [3] | TGI [4] | TGI [5] | TGI [6] | TGI [7] | TGI [8] | TGI [9] | TGI [10] | TGI [11] |
| --- | --- | --- | --- | --- | --- | --- | --- | --- | --- | --- | --- |
| N#Cc1ccc(-n2c3ccccc3c3ccc4c(c32)C(=O)C=CC4=O)cc1 | 16.1 µM | 27.3 µM | 5.88 µM | 5.58 µM | 13.1 µM | > 53.3 µM | 8.98 µM | 8.04 µM | > 25.4 µM | 4.39 µM | 30.8 µM |
| Cc1ccc2c(c1)-c1nc(N)c(C#N)c(-c3ccccc3)c1CCS2(=O)=O | > 100 µM |  | > 100 µM |  | > 100 µM | 81.8 µM | > 100 µM |  | > 100 µM | > 100 µM | > 100 µM |
| CC1=C(C(=O)Nc2ccccc2)C2(CCCCC2)C(C#N)=C(SCC(=O)Nc2ccc(Br)cc2)N1 | 20.2 µM | 44.5 µM | 8.53 µM | 7.81 µM | 17.2 µM | 30.3 µM | 7.96 µM | > 47.9 µM | 9.96 µM | 29.6 µM | 32.6 µM |
| COc1ccccc1C(=O)c1c(NCc2ccccc2)c(=O)c1=O | > 100 µM | > 100 µM | > 100 µM | > 100 µM | > 100 µM | > 100 µM | > 100 µM |  | > 100 µM | > 100 µM | > 100 µM |
| CCN1CCC(O)(c2ccc(Cl)cc2)C(C(=O)c2ccc(Cl)cc2)C1 (stereo not given) |  | > 100 µM | > 100 µM | > 100 µM |  | > 100 µM |  |  | > 100 µM |  |  |
| CCN(CC)C(=O)C(C)n1cc(C)c(=O)[nH]c1=O (stereo not given) | > 100 µM |  | > 100 µM | > 100 µM |  | 98.6 µM |  |  | > 100 µM |  | > 100 µM |
| N#Cc1c(N)nc(Sc2ccccc2N)c(C#N)c1-c1ccc(Cl)cc1 | 54.7 µM | 40.6 µM | > 100 µM | > 56.1 µM | 40.2 µM |  | 20.7 µM | 29.6 µM | 15.3 µM | 37.5 µM | 17.2 µM |
| Cc1nc2c(=O)n(C)ncc2[nH]1 | > 100 µM |  | > 100 µM | > 100 µM | > 100 µM | > 100 µM | > 100 µM | > 100 µM |  | > 100 µM | > 100 µM |
| CC(=O)c1cc2ccccc2oc1=O | > 100 µM |  | > 100 µM | > 100 µM | > 100 µM | > 100 µM | > 100 µM | > 100 µM | > 100 µM | > 100 µM | > 100 µM |
| Cn1c(-c2cccc([N+](=O)[O-])c2)[n+](C)c2ccccc21 | > 100 µM | > 100 µM | > 100 µM | > 100 µM |  | > 100 µM | > 100 µM | > 100 µM | > 100 µM | > 100 µM | > 100 µM |
| COc1cc(/C=C/C(=O)C2(C(=O)/C=C/c3cc(OC)c(OC)c(OC)c3)CCCCC2)cc(OC)c1OC | > 100 µM | > 100 µM | > 100 µM | > 100 µM |  | > 100 µM | > 100 µM | > 100 µM | > 100 µM | 42.5 µM | > 100 µM |
| CN(C)c1nc(Cl)c2c(-c3ccccc3)c(-c3ccccc3)oc2n1 | > 100 µM | > 100 µM | > 100 µM | > 100 µM |  | > 100 µM |  | > 100 µM | > 100 µM | > 100 µM |  |
| Nc1nc2c3nc(Nc4ccccc4)sc3nc(=O)n2c2sc(Nc3ccccc3)nc12 | > 100 µM | > 100 µM | > 100 µM | > 100 µM |  | > 100 µM |  |  |  |  | > 100 µM |
| COC(=O)c1c2cccccc-2c(Cc2c3cccccc-3c(C(=O)OC)c2O)c1O | > 100 µM | > 100 µM | > 100 µM | > 100 µM |  | > 100 µM |  |  | > 100 µM |  | > 100 µM |
| O=C1CSC(c2cccc([N+](=O)[O-])c2)N1c1ccc(-n2c(-c3ccccc3)nc3ccccc3c2=O)cc1 (stereo not given) | > 100 µM | > 100 µM | > 100 µM | > 100 µM | > 100 µM |  | > 100 µM | > 100 µM | > 100 µM | > 100 µM | > 100 µM |
| COc1cc(Cc2nccc3cc(OC)c(OC)cc23)c(N=NN(C)C)cc1OC | 19.6 µM | 49.2 µM | 25 µM | 42.4 µM | 46.1 µM | > 100 µM | 56.8 µM | 37.3 µM |  | 47.3 µM | > 100 µM |
| O=C(NNC(=S)NC1CCCCC1)c1csc(NC(=S)NC2CCCCC2)n1 | 14.5 µM | 28.6 µM | > 100 µM | > 100 µM |  |  | 24.9 µM | > 100 µM | 18.9 µM | 26.6 µM | 35.2 µM |
| COc1cc(CNNC(N)=S)cc(OC)c1OC | > 100 µM |  | > 100 µM | > 100 µM | > 100 µM | > 100 µM | > 100 µM | > 100 µM | > 100 µM | > 100 µM | > 100 µM |
| OC(c1cc(C23CC4CC(CC(C4)C2)C3)nc2c(Cl)cc(Cl)cc12)C1CCCCN1 (stereo not given) |  |  | 3.04 µM | 3.59 µM |  | 2.96 µM | 3.09 µM | 2.9 µM |  |  | 2.97 µM |
| CCC(C#N)NCc1cccc(CNC(C#N)CC)c1 (stereo not given) | > 100 µM | 32.3 µM | > 100 µM | > 100 µM | > 100 µM |  | > 100 µM | > 100 µM | > 100 µM | > 100 µM |  |
| C(=C\c1ccco1)/c1cccc(/C=C/c2ccco2)n1 | > 50 µM | > 50 µM | > 50 µM | > 50 µM | > 50 µM | 33.1 µM |  | > 50 µM | > 50 µM | > 50 µM | > 50 µM |
